# Test results taken from patent publication US20180015098A1 (LAM Therapeutics, Inc., priority 2015, published 2018).
# Tested on: panel of 456 kinases
# Assay: Screen of apilimod against a comprehensive panel of 456 kinases (PIKfyve not included)
# Format: binding
# Conditions: screening concentration 1 μM
# Description: Next, apilimod was screened against a comprehensive panel of kinases (PIKfyve not included).
structure (smiles),measurement,value
Cc1cccc(/C=N/Nc2cc(N3CCOCC3)nc(OCCc3ccccn3)n2)c1 [apilimod],binding to kinases of the panel,did not bind to any of the 456 kinases tested
